According to ChEMBL document CHEMBL5291721, “A preclinical secondary pharmacology resource illuminates target-adverse drug reaction associations of marketed drugs” (Nat Commun, 2023):

What was measured:
D(1A) dopamine receptor = D(1A) dopamine receptor (Homo sapiens, UniProt P21728)
[1] = molecular target: 5-hydroxytryptamine receptor 2B (Homo sapiens, UniProt P41595); format: functional, cell-based
Mu-type opioid receptor = Mu-type opioid receptor (Homo sapiens, UniProt P35372)
[2] = molecular target: cGMP-inhibited 3',5'-cyclic phosphodiesterase 3A (Homo sapiens, UniProt Q14432); format: functional
[3] = molecular target: 3',5'-cyclic-AMP phosphodiesterase 4A (Homo sapiens, UniProt P27815); format: functional
[4] = molecular target: T1, Alpha-1A adrenergic receptor (Homo sapiens, UniProt P35348); format: functional, cell-based
T1 sequence (P35348 whole entry): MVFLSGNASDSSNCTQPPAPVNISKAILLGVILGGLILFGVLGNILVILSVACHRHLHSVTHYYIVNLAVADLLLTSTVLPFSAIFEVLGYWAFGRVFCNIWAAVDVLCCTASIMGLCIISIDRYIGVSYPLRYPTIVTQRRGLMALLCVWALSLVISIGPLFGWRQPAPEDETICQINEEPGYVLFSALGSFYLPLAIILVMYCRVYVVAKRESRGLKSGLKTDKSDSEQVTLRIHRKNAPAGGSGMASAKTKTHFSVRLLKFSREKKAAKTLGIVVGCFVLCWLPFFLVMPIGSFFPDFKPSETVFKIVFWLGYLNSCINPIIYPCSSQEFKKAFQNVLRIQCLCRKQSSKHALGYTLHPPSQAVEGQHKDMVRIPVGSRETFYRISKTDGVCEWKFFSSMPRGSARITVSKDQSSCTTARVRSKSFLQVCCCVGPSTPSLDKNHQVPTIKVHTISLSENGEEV

[5] = molecular target: T2, Muscarinic acetylcholine receptor M1 (Homo sapiens, UniProt P11229); format: functional, cell-based
T2 sequence (P11229 whole entry): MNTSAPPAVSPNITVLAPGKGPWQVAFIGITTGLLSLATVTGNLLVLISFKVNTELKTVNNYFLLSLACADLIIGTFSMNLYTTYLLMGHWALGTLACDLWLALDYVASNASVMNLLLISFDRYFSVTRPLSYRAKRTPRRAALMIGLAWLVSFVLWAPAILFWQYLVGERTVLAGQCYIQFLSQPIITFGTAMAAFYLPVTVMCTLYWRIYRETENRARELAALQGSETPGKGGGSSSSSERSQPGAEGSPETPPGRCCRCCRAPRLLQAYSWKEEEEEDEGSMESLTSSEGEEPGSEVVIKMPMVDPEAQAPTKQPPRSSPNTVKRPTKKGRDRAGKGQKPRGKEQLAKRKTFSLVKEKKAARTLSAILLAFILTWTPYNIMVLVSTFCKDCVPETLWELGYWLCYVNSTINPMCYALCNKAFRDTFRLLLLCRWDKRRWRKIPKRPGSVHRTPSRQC

[6] = molecular target: Gamma-aminobutyric acid receptor subunit alpha-1 (Rattus norvegicus, UniProt P62813)
Sequence of Gamma-aminobutyric acid receptor subunit alpha-1 (P62813 whole entry): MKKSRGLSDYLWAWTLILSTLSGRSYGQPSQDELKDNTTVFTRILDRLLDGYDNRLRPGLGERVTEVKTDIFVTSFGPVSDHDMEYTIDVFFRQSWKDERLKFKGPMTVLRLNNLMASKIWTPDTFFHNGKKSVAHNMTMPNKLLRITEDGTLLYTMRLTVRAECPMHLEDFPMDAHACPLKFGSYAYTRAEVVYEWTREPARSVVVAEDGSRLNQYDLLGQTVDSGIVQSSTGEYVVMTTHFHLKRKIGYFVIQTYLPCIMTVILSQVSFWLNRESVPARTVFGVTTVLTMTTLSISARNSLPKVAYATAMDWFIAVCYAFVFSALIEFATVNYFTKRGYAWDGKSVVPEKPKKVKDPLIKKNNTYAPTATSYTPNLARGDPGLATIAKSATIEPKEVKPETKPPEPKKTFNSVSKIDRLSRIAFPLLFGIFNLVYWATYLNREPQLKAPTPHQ

[7] = molecular target: T1, Alpha-1A adrenergic receptor
Melanocortin receptor 4 = Melanocortin receptor 4 (Homo sapiens, UniProt P32245)
Sequence of Melanocortin receptor 4 (P32245 whole entry): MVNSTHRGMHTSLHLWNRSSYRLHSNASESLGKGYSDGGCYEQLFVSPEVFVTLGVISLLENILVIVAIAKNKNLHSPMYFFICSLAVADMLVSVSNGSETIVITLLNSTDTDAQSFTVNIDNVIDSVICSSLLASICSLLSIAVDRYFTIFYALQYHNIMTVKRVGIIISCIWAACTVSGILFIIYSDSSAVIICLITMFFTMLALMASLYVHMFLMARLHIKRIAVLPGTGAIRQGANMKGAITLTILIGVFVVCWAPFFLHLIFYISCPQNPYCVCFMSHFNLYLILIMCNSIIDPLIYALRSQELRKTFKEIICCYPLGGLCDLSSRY

[8] = molecular target: Beta-2 adrenergic receptor (Homo sapiens, UniProt P07550)
[9] = molecular target: Glutamate receptor ionotropic, NMDA 1 (Rattus norvegicus, UniProt P35439)
[10] = molecular target: Voltage-dependent L-type calcium channel subunit alpha-1C (Rattus norvegicus, UniProt P22002); format: functional
Sequence of Voltage-dependent L-type calcium channel subunit alpha-1C (P22002 whole entry): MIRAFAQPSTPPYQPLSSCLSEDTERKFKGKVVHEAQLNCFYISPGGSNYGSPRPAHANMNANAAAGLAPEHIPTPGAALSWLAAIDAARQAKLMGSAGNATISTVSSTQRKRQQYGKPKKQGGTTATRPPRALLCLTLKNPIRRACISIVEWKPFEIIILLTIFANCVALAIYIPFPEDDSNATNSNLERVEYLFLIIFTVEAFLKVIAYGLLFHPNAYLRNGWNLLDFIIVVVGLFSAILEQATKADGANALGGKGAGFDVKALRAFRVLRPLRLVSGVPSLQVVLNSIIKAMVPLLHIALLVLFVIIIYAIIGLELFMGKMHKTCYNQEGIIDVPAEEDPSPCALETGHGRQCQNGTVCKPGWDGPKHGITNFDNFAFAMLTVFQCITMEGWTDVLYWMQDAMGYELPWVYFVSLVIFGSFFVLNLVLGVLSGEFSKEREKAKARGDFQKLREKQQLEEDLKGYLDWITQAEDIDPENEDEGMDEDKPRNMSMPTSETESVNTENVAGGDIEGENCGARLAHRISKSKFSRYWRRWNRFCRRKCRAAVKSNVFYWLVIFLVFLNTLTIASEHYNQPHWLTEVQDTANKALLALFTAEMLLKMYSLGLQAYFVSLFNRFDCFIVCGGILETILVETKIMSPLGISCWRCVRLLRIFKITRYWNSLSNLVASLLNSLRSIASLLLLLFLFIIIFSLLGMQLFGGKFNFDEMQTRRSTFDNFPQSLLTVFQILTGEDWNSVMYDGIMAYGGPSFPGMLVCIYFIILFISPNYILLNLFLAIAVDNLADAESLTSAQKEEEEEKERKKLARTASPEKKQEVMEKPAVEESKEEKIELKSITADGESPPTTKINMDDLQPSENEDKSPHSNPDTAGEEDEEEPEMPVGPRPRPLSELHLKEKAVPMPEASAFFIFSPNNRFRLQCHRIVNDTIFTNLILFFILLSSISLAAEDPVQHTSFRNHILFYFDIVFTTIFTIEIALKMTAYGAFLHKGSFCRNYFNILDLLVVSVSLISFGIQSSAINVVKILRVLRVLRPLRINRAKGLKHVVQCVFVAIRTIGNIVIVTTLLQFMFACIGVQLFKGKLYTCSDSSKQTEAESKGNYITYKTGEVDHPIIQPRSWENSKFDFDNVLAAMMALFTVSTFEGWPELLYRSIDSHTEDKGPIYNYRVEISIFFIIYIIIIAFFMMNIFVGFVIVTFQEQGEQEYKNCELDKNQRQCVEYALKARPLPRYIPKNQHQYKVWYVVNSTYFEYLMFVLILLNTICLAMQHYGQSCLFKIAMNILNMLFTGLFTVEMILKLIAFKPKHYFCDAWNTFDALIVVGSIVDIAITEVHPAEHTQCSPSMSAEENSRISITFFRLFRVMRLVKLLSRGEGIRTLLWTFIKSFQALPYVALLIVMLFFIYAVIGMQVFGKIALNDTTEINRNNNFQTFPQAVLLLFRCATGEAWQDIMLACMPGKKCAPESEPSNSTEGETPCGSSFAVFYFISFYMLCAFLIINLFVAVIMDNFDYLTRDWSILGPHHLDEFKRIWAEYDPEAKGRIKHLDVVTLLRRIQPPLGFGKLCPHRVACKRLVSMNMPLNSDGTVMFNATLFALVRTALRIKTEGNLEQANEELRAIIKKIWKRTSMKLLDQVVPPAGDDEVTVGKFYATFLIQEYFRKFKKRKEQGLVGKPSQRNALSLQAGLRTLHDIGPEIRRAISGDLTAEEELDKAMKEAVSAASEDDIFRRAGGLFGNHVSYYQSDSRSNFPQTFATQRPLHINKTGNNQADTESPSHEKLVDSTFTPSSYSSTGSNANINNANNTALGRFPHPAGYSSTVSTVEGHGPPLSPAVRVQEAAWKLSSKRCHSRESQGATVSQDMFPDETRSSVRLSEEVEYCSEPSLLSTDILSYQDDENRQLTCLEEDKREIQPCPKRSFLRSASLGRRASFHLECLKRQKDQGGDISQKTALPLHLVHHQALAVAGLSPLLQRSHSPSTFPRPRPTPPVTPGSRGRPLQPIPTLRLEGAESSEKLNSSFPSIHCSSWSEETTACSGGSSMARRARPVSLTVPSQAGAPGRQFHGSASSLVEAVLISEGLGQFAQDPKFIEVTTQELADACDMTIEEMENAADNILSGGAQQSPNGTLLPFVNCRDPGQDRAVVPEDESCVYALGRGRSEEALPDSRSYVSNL

[11] = molecular target: Muscarinic acetylcholine receptor M3 (Homo sapiens, UniProt P20309)
Sequence of Muscarinic acetylcholine receptor M3 (P20309 whole entry): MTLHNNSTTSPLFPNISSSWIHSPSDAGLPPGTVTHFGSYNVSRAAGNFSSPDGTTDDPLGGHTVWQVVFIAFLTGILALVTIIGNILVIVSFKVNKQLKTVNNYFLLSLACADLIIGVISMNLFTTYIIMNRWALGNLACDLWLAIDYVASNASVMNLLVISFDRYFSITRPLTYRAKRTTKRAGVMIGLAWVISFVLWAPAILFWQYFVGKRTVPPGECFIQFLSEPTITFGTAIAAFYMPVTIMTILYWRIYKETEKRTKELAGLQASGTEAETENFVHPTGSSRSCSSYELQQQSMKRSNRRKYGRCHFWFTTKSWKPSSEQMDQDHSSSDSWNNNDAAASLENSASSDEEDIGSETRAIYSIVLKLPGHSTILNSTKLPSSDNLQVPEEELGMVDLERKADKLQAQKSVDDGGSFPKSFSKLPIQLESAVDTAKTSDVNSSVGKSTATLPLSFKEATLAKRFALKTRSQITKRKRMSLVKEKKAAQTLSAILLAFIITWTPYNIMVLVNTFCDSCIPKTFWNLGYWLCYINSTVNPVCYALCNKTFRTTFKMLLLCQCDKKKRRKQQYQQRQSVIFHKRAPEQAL

[12] = molecular target: T2, Muscarinic acetylcholine receptor M1; format: functional
Histamine H1 receptor = Histamine H1 receptor (Homo sapiens, UniProt P35367)
Sequence of Histamine H1 receptor (P35367 whole entry): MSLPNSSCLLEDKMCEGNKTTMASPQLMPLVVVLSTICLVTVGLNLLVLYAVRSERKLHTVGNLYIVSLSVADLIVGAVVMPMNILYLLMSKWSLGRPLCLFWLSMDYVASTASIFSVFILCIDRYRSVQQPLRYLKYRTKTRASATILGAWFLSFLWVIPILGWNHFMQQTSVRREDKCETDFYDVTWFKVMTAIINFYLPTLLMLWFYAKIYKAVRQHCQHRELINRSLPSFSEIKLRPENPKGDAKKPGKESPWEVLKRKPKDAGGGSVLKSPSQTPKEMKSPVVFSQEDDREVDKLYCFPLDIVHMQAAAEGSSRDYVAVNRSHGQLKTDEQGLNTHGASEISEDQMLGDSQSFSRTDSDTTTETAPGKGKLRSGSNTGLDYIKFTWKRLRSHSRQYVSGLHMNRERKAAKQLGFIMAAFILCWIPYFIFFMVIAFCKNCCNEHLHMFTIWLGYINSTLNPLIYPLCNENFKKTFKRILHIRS
Note: assay procedure not described here.

Sequence of 5-hydroxytryptamine receptor 2B (P41595 whole entry): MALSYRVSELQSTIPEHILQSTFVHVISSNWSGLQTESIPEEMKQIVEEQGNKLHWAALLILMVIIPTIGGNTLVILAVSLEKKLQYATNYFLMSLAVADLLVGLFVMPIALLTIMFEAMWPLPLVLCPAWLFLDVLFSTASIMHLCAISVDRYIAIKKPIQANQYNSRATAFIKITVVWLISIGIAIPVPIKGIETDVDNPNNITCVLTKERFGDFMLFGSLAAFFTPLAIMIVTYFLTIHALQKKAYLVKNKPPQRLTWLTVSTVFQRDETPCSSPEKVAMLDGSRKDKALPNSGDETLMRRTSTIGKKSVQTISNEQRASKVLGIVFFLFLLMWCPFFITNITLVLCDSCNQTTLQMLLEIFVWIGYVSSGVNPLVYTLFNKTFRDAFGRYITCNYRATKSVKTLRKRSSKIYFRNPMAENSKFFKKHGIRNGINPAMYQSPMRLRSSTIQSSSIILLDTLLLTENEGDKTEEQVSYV
Sequence of Mu-type opioid receptor (P35372 whole entry): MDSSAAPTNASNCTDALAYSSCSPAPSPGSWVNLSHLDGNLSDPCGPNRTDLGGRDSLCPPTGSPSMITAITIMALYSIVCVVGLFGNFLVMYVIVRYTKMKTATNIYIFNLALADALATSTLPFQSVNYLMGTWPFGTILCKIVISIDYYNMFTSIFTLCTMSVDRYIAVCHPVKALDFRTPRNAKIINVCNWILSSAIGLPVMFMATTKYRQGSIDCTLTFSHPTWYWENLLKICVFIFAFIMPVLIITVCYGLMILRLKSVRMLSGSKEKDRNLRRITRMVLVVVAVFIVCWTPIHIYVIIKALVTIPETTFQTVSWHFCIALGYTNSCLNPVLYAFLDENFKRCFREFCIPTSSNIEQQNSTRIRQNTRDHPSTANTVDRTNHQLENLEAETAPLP

| SMILES | AC50 (D(1A) dopamine receptor) | AC50 [1] | AC50 (Mu-type opioid receptor) | AC50 [2] | AC50 [3] | AC50 [4] | AC50 [5] | AC50 [6] | AC50 [7] | AC50 (Melanocortin receptor 4) | AC50 [8] | AC50 [9] | AC50 [10] | AC50 [11] | AC50 [12] | AC50 (Histamine H1 receptor) |
| --- | --- | --- | --- | --- | --- | --- | --- | --- | --- | --- | --- | --- | --- | --- | --- | --- |
| OC[C@H]1NC[C@H](O)[C@@H](O)[C@H]1O | > 30 µM | > 30 µM | > 30 µM | > 30 µM | > 30 µM | > 30 µM | > 30 µM | > 30 µM | – | – | – | – | – | – | – | – |
| O=C(O)[C@@H](S)[C@@H](S)C(=O)O | > 30 µM | > 30 µM | > 30 µM | > 30 µM | > 30 µM | – | – | > 30 µM | – | – | – | – | – | – | – | – |
| CCOC(=O)[C@H](CCc1ccccc1)N[C@@H](C)C(=O)N1Cc2ccccc2C[C@H]1C(=O)O | > 30 µM | > 30 µM | > 30 µM | > 30 µM | > 30 µM | > 30 µM | – | > 30 µM | > 10 µM | > 30 µM | > 10 µM | > 10 µM | > 10 µM | – | – | – |
| C=CC1=C(C(=O)O)N2C(=O)[C@@H](NC(=O)/C(=N\O)c3csc(N)n3)[C@H]2SC1 | – | – | – | – | – | – | – | – | > 10 µM | > 30 µM | > 30 µM | > 10 µM | > 10 µM | > 30 µM | > 10 µM | > 10 µM |
| CC#CC(=O)N1CCC[C@H]1c1nc(-c2ccc(C(=O)Nc3ccccn3)cc2)c2c(N)nccn12 [ACALABRUTINIB] | > 30 µM | > 30 µM | > 30 µM | > 30 µM | > 30 µM | > 30 µM | > 30 µM | > 30 µM | – | – | – | – | – | – | – | – |
| C=CCOc1ccc(CC(=O)O)cc1Cl [ALCLOFENAC] | > 30 µM | > 30 µM | > 30 µM | > 30 µM | > 30 µM | > 30 µM | > 30 µM | > 30 µM | – | – | – | – | – | – | – | – |
| CN(C)CCC=C1c2ccccc2CCc2ccccc21 [AMITRIPTYLINE] | – | – | 9.46 µM | > 30 µM | > 30 µM | > 30 µM | – | – | 0.0299 µM | 17.7 µM | 21.1 µM | > 10 µM | > 10 µM | – | – | – |
| CC(=O)Oc1ccccc1C(=O)O [ASPIRIN] | > 30 µM | > 30 µM | > 30 µM | > 30 µM | > 30 µM | > 30 µM | – | – | > 10 µM | > 30 µM | > 10 µM | > 10 µM | > 10 µM | – | – | – |
| CC(C)C[C@H](NC(=O)[C@H](Cc1ccccc1)NC(=O)c1cnccn1)B(O)O [BORTEZOMIB] | – | – | – | – | – | – | – | – | > 30 µM | > 30 µM | > 30 µM | > 30 µM | > 30 µM | > 30 µM | > 30 µM | > 30 µM |
| CCN(CC)CCn1c(=O)c(Cc2ccc(OC)cc2)nc2ccccc21 [CAROVERINE] | – | – | – | – | – | – | – | – | 8.9 µM | > 30 µM | > 30 µM | > 30 µM | > 30 µM | > 30 µM | > 30 µM | 25 µM |
| CN1CCN(C(c2ccccc2)c2ccc(Cl)cc2)CC1 (centres undefined) [CHLORCYCLIZINE] | 6.89 µM | > 30 µM | > 30 µM | > 30 µM | > 30 µM | > 30 µM | 0.691 µM | – | – | – | – | – | – | – | – | – |
| CN(C)CCCC1(c2ccc(F)cc2)OCc2cc(C#N)ccc21 (centres undefined) [CITALOPRAM] | – | > 30 µM | – | > 30 µM | > 30 µM | – | – | > 30 µM | – | > 30 µM | > 10 µM | > 10 µM | > 10 µM | – | – | – |
| CC(C)Nc1cccnc1N1CCN(C(=O)c2cc3cc(NS(C)(=O)=O)ccc3[nH]2)CC1 [DELAVIRDINE] | > 30 µM | > 30 µM | 13.9 µM | > 30 µM | > 30 µM | > 30 µM | 16.4 µM | – | – | – | – | – | – | – | – | – |
| C[C@]12CCC(=O)C=C1CC[C@H]1[C@@H]3CC[C@](O)(C(=O)CO)[C@@]3(C)C[C@H](O)[C@@]12F [FLUDROCORTISONE] | – | – | – | – | – | – | – | – | > 10 µM | > 30 µM | > 10 µM | > 10 µM | > 10 µM | > 30 µM | > 10 µM | > 10 µM |
| O=c1[nH]cc(F)c(=O)[nH]1 [FLUOROURACIL] | – | > 30 µM | > 30 µM | > 30 µM | > 30 µM | > 30 µM | – | > 30 µM | – | – | – | – | – | – | – | – |
| O=C(O)[C@H](O)[C@@H](O)[C@H](O)[C@H](O)CO [GLUCONIC ACID] | > 30 µM | > 30 µM | > 30 µM | > 30 µM | 21.4 µM | > 30 µM | > 30 µM | – | – | – | – | – | – | – | – | – |
| OCCOCCN1CCN(C(c2ccccc2)c2ccc(Cl)cc2)CC1 (centres undefined) [HYDROXYZINE] | – | – | – | – | – | – | – | – | 1.66 µM | > 30 µM | > 10 µM | > 10 µM | > 10 µM | > 10 µM | > 10 µM | 0.039 µM |
| N#Cc1ccnc(N2C(=O)CC[C@H]2C(=O)N(c2cncc(F)c2)[C@H](C(=O)NC2CC(F)(F)C2)c2ccccc2Cl)c1 [IVOSIDENIB] | > 30 µM | > 30 µM | > 30 µM | > 30 µM | > 30 µM | > 30 µM | > 30 µM | – | – | – | – | – | – | – | – | – |
| O=NN(CCCl)C(=O)NC1CCCCC1 [LOMUSTINE] | > 30 µM | > 30 µM | > 30 µM | > 30 µM | 25.7 µM | 14.1 µM | – | > 30 µM | – | – | – | – | – | – | – | – |
| CNC1(C)C2CCC(C2)C1(C)C (centres undefined) [MECAMYLAMINE] | – | – | – | – | – | – | – | – | > 10 µM | > 10 µM | > 10 µM | > 10 µM | > 10 µM | > 30 µM | > 10 µM | > 10 µM |
| CCCCCCCC/C=C\CCCCCCCC(=O)O [OLEIC ACID] | > 30 µM | > 30 µM | > 30 µM | > 30 µM | > 30 µM | > 30 µM | 13.2 µM | – | – | – | – | – | – | – | – | – |
| CC1=C(C/C=C(\C)CCC[C@H](C)CCC[C@H](C)CCCC(C)C)C(=O)c2ccccc2C1=O [PHYTONADIONE] | > 30 µM | > 30 µM | > 30 µM | 3.44 µM | 9.52 µM | > 30 µM | > 30 µM | – | – | – | – | – | – | – | – | – |
| NC(=O)C1(N2CCCCC2)CCN(CCCC(=O)c2ccc(F)cc2)CC1 [PIPAMPERONE] | 0.258 µM | > 30 µM | 7.02 µM | > 30 µM | > 30 µM | > 30 µM | > 30 µM | – | – | – | – | – | – | – | – | – |
| CC(C)(Oc1ccc(Cl)cc1)C(=O)NC(=O)NCN1CCOCC1 [PLAFIBRIDE] | > 30 µM | > 30 µM | > 30 µM | > 30 µM | > 30 µM | > 30 µM | > 30 µM | – | – | – | – | – | – | – | – | – |
| CC(=O)SCC(Cc1ccccc1)C(=O)NCC(=O)OCc1ccccc1 (centres undefined) [RACECADOTRIL] | – | – | – | – | – | – | – | – | > 10 µM | > 30 µM | > 10 µM | > 30 µM | 28 µM | > 30 µM | > 30 µM | > 30 µM |
| Cc1ccc(C(C)C)c(O)c1 [THYMOL] | > 30 µM | > 30 µM | > 30 µM | > 30 µM | > 30 µM | > 30 µM | 13.9 µM | – | – | – | – | – | – | – | – | – |
| Cc1cccc(C)c1NC(=O)c1cc(S(N)(=O)=O)c(Cl)cc1O [XIPAMIDE] | > 30 µM | > 30 µM | > 30 µM | > 30 µM | > 30 µM | > 30 µM | > 30 µM | – | – | – | – | – | – | – | – | – |
